Test results as given in patent publication US20140066365A1, “USE OF CALIXARENES ASSOCIATED WITH AN ANTIBIOTIC IN THE TREATMENT OF BACTERIAL INFECTIONS” (priority 2011, published 2014).
In brackets after ≈: the same amount, converted by molar mass. Like-named read-outs stand apart in the source and are kept apart here.

Experiments:
[1] = test system: Staphylococcus aureus strain ATCC 29213 (wild type); test: MIC of the compounds used alone, microdilution in a liquid medium (CLSI); format: cell-based; settings: Staphylococcus aureus
From the text: (§1) The MICs of the antibiotics were previously defined for each strain, by the method of microdilution in a liquid medium (CLSI (Clinical and Laboratory Standards Institute), 2003).

[2] = test system: MRSA strain having a resistance to the aminoglycosides and fluoroquinolones (SaR3); test: as above; format: cell-based, Staphylococcus aureus; settings: Staphylococcus aureus, MRSA
From the text: as §1

[3] = test system: MRSA strain without associated resistance (SaR1); test: as above; format: cell-based, Staphylococcus aureus; settings: Staphylococcus aureus, MRSA
From the text: as §1

[4] = as above; format: cell-based, Staphylococcus aureus; settings: Staphylococcus aureus, MRSA
From the text: as §1

[5] = test system: Escherichia coli strain ATCC 25922 (wild type); test: as above; format: cell-based; settings: Escherichia coli
From the text: as §1

[6] = test system: Pseudomonas aeruginosa strain ATCC 27853 (wild type); test: as above; format: cell-based; settings: Pseudomonas aeruginosa
From the text: as §1

[7] = test system: SaR1: Meticillin-Resistant Staphylococcus aureus without Associated Resistance; test: Antibiogram, inhibition diameter (Table D1); format: cell-based; settings: for Results: from diameter, against Dmin Dmax
Procedure: (§2) The bacterial and antibiogramidentification is carried out by the VITEK 2 system (bioMérieux)

[8] = test system: SaR1: Meticillin-Resistant Staphylococcus aureus without Associated Resistance; test: Antibiogram, MIC by the VITEK 2 system; format: cell-based; settings: for CA-SFM Interpretation: Cc CA-SFM 2011; for CLSI Interpretation: Cc CLSI 2011; for EUCAST Interpretation: Cc EUCAST 2011; for Results: from MIC
Procedure: as §2

[9] = test system: SaR3: Meticillin-Resistant Staphylococcus aureus; test: Antibiogram by the disk diffusion technique; format: cell-based; settings: for CA-SFM Interpretation: Cd CA-SFM 2011; for Results: Table E1, against Dmin Dmax; for diameter in mm: Table E2; for CLSI Interpretation: Cd CLSI 2011; for EUCAST Interpretation: Cd EUCAST 2011; for Diameter: Table E1
Procedure: (§3) The bacterial and antibiogramidentification is carried out by the VITEK 2 system (bioMérieux) and by the disk diffusion technique

[10] = test system: SaR4: Meticillin-Resistant Staphylococcus aureus; test: Antibiogram, MIC by the VITEK 2 system; format: cell-based; settings: for CA-SFM Interpretation / CLSI Interpretation / EUCAST Interpretation: from MIC; for CA-SFM Interpretation: Cc CA-SFM 2011; for CLSI Interpretation: Cc CLSI 2011; for EUCAST Interpretation: Cc EUCAST 2011; for MIC: Staphylococcus aureus
Procedure: as §3

[11] = test system: EcR2: Cephalosporinase-Hyperproducing Strain of Escherichia coli; test: Antibiogram, MIC by the VITEK 1 system; format: cell-based; settings: for MIC: Escherichia coli, read-out: MIC
Procedure: (§4) The bacterial and antibiogramidentification is carried out by the VITEK 1 system (bioMérieux) and by the disk diffusion technique

[12] = test system: EcR1: Penicillinase-Producing Escherichia coli without Associated Resistance; test: Antibiogram, MIC by the VITEK 2 system; format: cell-based; settings: for CA-SFM Interpretation: EcR1, MIC against Cc CA-SFM 2011; for CLSI Interpretation: EcR1, MIC against Cc CLSI 2011; for EUCAST Interpretation: EcR1, MIC against Cc EUCAST 2011; for Results: EcR1, interpretation of the MIC, Table A1; for MIC: Escherichia coli
Procedure: (§5) 5.1 EcR1: Penicillinase-Producing Escherichia coli without Associated Resistance The bacterial and antibiogramidentification is carried out by the VITEK 2 system (bioMérieux) and by the disk diffusion technique.

[13] = test system: ESBL-producing strain of Escherichia coli, having an associated resistance to the aminoglycosides (EcR3); test: MIC of the compounds used alone, microdilution in a liquid medium (CLSI); format: cell-based; settings: Escherichia coli, antibiotic alone (second value of cell), read-out: Initial MICs
From the text: as §1

[14] = test system: penicillinase-producing strain of Escherichia coli without associated resistance (EcR1); test: as above; format: cell-based; settings: Escherichia coli, antibiotic alone (second value of cell), read-out: Initial MICs
From the text: as §1

[15] = test system: cephalosporinase-hyperproducing strain of Escherichia coli (EcR2); test: as above; format: cell-based; settings: Escherichia coli, antibiotic alone (second value of cell), read-out: Initial MICs
From the text: as §1

[16] = test system: EcR3: ESBL-Producing Escherichia coli; test: Antibiogram by the disk diffusion technique; format: cell-based; settings: for CA-SFM Interpretation: Cd CA-SFM 2011; for CLSI Interpretation: Cd CLSI 2011; for EUCAST Interpretation: Cd EUCAST 2011; for Diameter: Table C1; for Results: Table C1, against Dmin Dmax; for diameter in mm: Table C2
Procedure: The bacterial and antibiogramidentification is carried out by the VITEK 2 system (bioMerieux) and by the disk diffusion technique

[17] = test system: EcR1: Penicillinase-Producing Escherichia coli without Associated Resistance; test: Antibiogram by the disk diffusion technique; format: cell-based; settings: Table A1; for Diameter: EcR1, disk diffusion; for Results: EcR1, interpretation of the diameter against Dmin Dmax
Procedure: as §5

[18] = test system: EcR2: Cephalosporinase-Hyperproducing Strain of Escherichia coli; test: Antibiogram by the disk diffusion technique; format: cell-based
Procedure: as §4

[19] = ATCC29213, antibiotic alone (second value of cell), S. aureus ATCC 29213, read-out: Initial MICs
[20] = antibiotic alone (second value of cell), SaR3, read-out: MIC
[21] = antibiotic alone (second value of cell), SaR1, read-out: MIC
[22] = antibiotic alone (second value of cell), SaR4, read-out: MIC
[23] = Staphylococcus aureus, SaR1, Table D1, read-out: MIC
[24] = EcR1, Table A2, read-out: MIC mg/L (diameter in mm)
[25] = EcR1, VITEK 2, Table A1, read-out: MIC
[26] = ATCC25922, antibiotic alone (second value of cell), E. coli ATCC 25922, read-out: Initial MICs

## C[C@H]1COc2c(N3CCN(C)CC3)c(F)cc3c(=O)c(C(=O)O)cn1c23 [Levofloxacin]
[1]; [19]
  MIC: 0.125 mg/L
[2]; [20]
  MIC: 8 µg/mL
[3]; [21]
  MIC: 0.25 µg/mL
[4]; [22]
  MIC: > 32 µg/mL

## N=C(N)c1ccc(OCCCCCCOc2ccc(C(=N)N)cc2)cc1 [Hexamidine]
[5]; ATCC25922, read-out: Initial MICs (mg/L), antiseptic (ATS)
  MIC: 8 mg/L
[6]; ATCC27853, read-out: Initial MICs (mg/L), antiseptic (ATS)
  MIC: 32 mg/L
[1]; ATCC29213, read-out: Initial MICs (mg/L), antiseptic (ATS)
  MIC: < 1 mg/L

## CN[C@H](CC(C)C)C(=O)N[C@H]1C(=O)N[C@@H](CC(N)=O)C(=O)N[C@H]2C(=O)N[C@H]3C(=O)N[C@H](C(=O)N[C@H](C(=O)O)c4cc(O)cc(O)c4-c4cc3ccc4O)[C@H](O)c3ccc(c(Cl)c3)Oc3cc2cc(c3O[C@@H]2O[C@H](CO)[C@@H](O)[C@H](O)[C@H]2O[C@H]2C[C@](C)(N)[C@H](O)[C@H](C)O2)Oc2ccc(cc2Cl)[C@H]1O [Vancomycin]
[7]
  Results: Susceptible
[8]; SaR1
  CA-SFM Interpretation: Susceptible
  CLSI Interpretation: Susceptible
  EUCAST Interpretation: Susceptible
[8]; SaR1, Table D1
  Results: Susceptible
[8]; SaR1, Table D2
  MIC mg/L: ≦1 mg/L
[8]; Staphylococcus aureus, read-out: MIC mg/L
  MIC: ≤ 1 mg/L
[9]
  CA-SFM Interpretation: Susceptible
  Results: Susceptible
  diameter in mm: 28 mm
[1]; ATCC29213, read-out: Initial MICs (mg/L)
  MIC: 0.5 mg/L
[10]; SaR4, Table F1, MIC
  Results: Susceptible
[10]; SaR4
  CA-SFM Interpretation: Susceptible
  CLSI Interpretation: Susceptible
  EUCAST Interpretation: Susceptible
[10]
  MIC: 1 mg/L (≈ 0.69 µM)
[10]; read-out: MIC mg/L
  MIC: 1 mg/L (≈ 0.69 µM)
[2]
  MIC: 0.25 µg/mL
[3]
  MIC: 0.25 µg/mL
[4]
  MIC: 0.25 µg/mL

## CC(=O)NC[C@H]1CN(c2ccc(N3CCOCC3)c(F)c2)C(=O)O1 [Linezolid]
[7]
  Diameter: 29 mm
  Results: Susceptible
[8]; SaR1
  CA-SFM Interpretation: Susceptible
  CLSI Interpretation: Susceptible
  EUCAST Interpretation: Susceptible
[8]; SaR1, Table D1
  Results: Susceptible
[8]; SaR1, Table D2
  MIC: 2 mg/L (≈ 5.93 µM)
[8]; [23]
  MIC: 2 mg/L (≈ 5.93 µM)
[9]
  CA-SFM Interpretation: Susceptible
  CLSI Interpretation: Susceptible
  EUCAST Interpretation: Susceptible
  Diameter: 26 mm
  Results: Susceptible
  diameter in mm: 26 mm
[1]; [19]
  MIC: 2 mg/L
[2]; [20]
  MIC: 2 µg/mL
[3]; [21]
  MIC: 2 µg/mL
[4]; [22]
  MIC: 2 µg/mL

## CC1(C)S[C@@H]2[C@H](NC(=O)[C@H](N)c3ccc(O)cc3)C(=O)N2[C@H]1C(=O)O [Amoxicillin]
[11]; EcR2, Table B1
  Results: Resistant
[11]; EcR2, from MIC, Cc CA-SFM 2011
  CA-SFM Interpretation: Resistant
[11]; EcR2, from MIC, Cc CLSI 2011
  CLSI Interpretation: Resistant
[11]; EcR2, from MIC, Cc EUCAST 2011
  EUCAST Interpretation: Resistant
[11]; EcR2, VITEK 1, Table B1
  MIC: ≥ 32 µg/mL
[11]; EcR2, Table B2, MIC
  MIC: ≥ 32 µg/mL
[12]
  CA-SFM Interpretation: Resistant
  CLSI Interpretation: Resistant
  EUCAST Interpretation: Resistant
  Results: Resistant
[12]; [24]
  MIC: ≥ 32 mg/L
[12]; [25]
  MIC: ≥ 32 mg/L
[5]; [26]
  MIC: 4 mg/L
[13]
  MIC: > 256 µg/mL
[14]
  MIC: > 256 µg/mL
[15]
  MIC: 256 µg/mL
[16]
  CA-SFM Interpretation: Resistant
  CLSI Interpretation: Resistant
  EUCAST Interpretation: Resistant
  Diameter: 6 mm
  Results: Resistant
  diameter in mm: 6 mm
[17]
  Diameter: 6 mm
  Results: Resistant

## [H]/N=C(\N/C(=N/[H])NCCCCCCNC(=N)NC(=N)Nc1ccc(Cl)cc1)Nc1ccc(Cl)cc1 [Chlorhexidine]
[5]; ATCC25922, antiseptic alone, E. coli ATCC 25922, read-out: Initial MICs (mg/L), antiseptic (ATS)
  MIC: < 1 mg/L
[6]; ATCC27853, antiseptic alone, P. aeruginosa ATCC 27853, read-out: Initial MICs (mg/L), antiseptic (ATS)
  MIC: 4 mg/L
[1]; ATCC29213, antiseptic alone, S. aureus ATCC 29213, read-out: Initial MICs (mg/L), antiseptic (ATS)
  MIC: < 1 mg/L

## CC[C@H]1OC(=O)[C@H](C)[C@@H](O[C@H]2C[C@@](C)(OC)[C@@H](O)[C@H](C)O2)[C@H](C)[C@@H](O[C@@H]2O[C@H](C)C[C@H](N(C)C)[C@H]2O)[C@](C)(O)C[C@@H](C)C(=O)[C@H](C)[C@@H](O)[C@]1(C)O [Erythromycin]
[7]
  Diameter: 25 mm
  Results: Susceptible
[8]; SaR1
  CA-SFM Interpretation: Susceptible
  CLSI Interpretation: Susceptible
  EUCAST Interpretation: Susceptible
[8]; SaR1, Table D1
  Results: Susceptible
[8]; SaR1, Table D2
  MIC mg/L: ≦0.25 mg/L
[8]; [23]
  MIC: ≤ 0.25 mg/L
[9]
  CA-SFM Interpretation: Susceptible
  CLSI Interpretation: Susceptible
  EUCAST Interpretation: Susceptible
  Diameter: 25 mm
  Results: Susceptible
  diameter in mm: 25 mm
[1]; [19]
  MIC: 0.5 mg/L
[10]; SaR4, Table F1, MIC
  Results: Resistant
[10]; SaR4
  CA-SFM Interpretation: Resistant
  CLSI Interpretation: Resistant
  EUCAST Interpretation: Resistant
[10]; SaR4, Table F1, read-out: MIC
  MIC: ≥ 8 mg/L
[10]; SaR4, Table F2, MIC, read-out: MIC
  MIC: ≥ 8 mg/L
[2]; [20]
  MIC: 0.5 µg/mL
[3]; [21]
  MIC: 0.5 µg/mL
[4]; [22]
  MIC: > 32 µg/mL

## CO/N=C(\C(=O)N[C@@H]1C(=O)N2C(C(=O)O)=C(COC(C)=O)CS[C@H]12)c1csc(N)n1 [Cefotaxime]
[12]
  CA-SFM Interpretation: Susceptible
  CLSI Interpretation: Susceptible
  EUCAST Interpretation: Susceptible
  Results: Susceptible
[12]; [24]
  MIC: ≤ 1 mg/L
[12]; [25]
  MIC: ≤ 1 mg/L
[18]; EcR2, disk diffusion, Table B1
  Diameter: 24
[18]; EcR2, rows that print a diameter, Table B1
  Results: Intermediate
[18]; EcR2, Table B2, diameters
  Diameter: 24 mm
[18]; EcR2, from diameter, CA-SFM 2011
  CA-SFM Interpretation: Intermediate
[18]; EcR2, from diameter, CLSI 2011
  CLSI Interpretation: Intermediate
[18]; EcR2, from diameter, EUCAST 2011
  EUCAST Interpretation: Resistant
[5]; [26]
  MIC: 0.06 mg/L
[13]
  MIC: 128 µg/mL
[14]
  MIC: 0.06 µg/mL
[15]
  MIC: 4 µg/mL
[16]
  CA-SFM Interpretation: Resistant
  CLSI Interpretation: Resistant
  EUCAST Interpretation: Intermediate
  Diameter: 19 mm
  Results: Intermediate
  diameter in mm: 19 mm
[17]
  Diameter: 30 mm
  Results: Susceptible
